Series [1] deals with PCP recognition sites. Briefly: [3H]TCP Radioreceptor Assay (internal screen). It is filed as binding, rat (male Sprague-Dawley. The following applies: rat whole brain membranes, room temperature, 25 min; for pKi: ~1 nM [3H]TCP. How it is done: [^3 H]TCP Radioreceptor Assay (internal screen)
[^3 H]TCP binding to PCP recognition sites was performed as described by Vignon et al. Brain Research 1983, 280, 194°197. Male Sprague-Dawley rats were sacrificed by decapitation, and whole brains were homogenized in 10 volumes (wt/vol) of cold Tris-HCl buffer (50 mM, pH 7.7) using a Brinkmann Polytron (setting 6, 30 sec). The homogenate was centrifuged at 40,000×g for 10 min at 4° C. The supernatant was decanted, and the homogenization and centrifugation steps were repeated twice as described above. Following this, the pellet was resuspended in Tris-HCl (5 mM, pH 7.7) at a tissue concentration of 0.5°0.75 g/ml, and one ml aliquots were frozen at -70° C. until use. The binding characteristics for PCP recognition sites were not altered by the freezing of membrane suspensions.
On the day of the assay, membrane aliquots were thawed, resuspended in fresh 5 mM Tris-HCl buffer at a tissue concentration of 1 mg/ml, and stored on ice until use. Each assay tube contained 100 μl of [^3 H]TCP at a final concentration of approximately 1 nM, 100 μl of various concentrations of the compounds of interest, 500 μl of the tissue suspension and 300 of buffer to a final assay volume of 1 ml and a final protein concentration of 0.5 mg/tube. Non-specific binding was defined by addition of a final concentration of 100 μM PCP to blank tubes. All tubes were incubated at room temperature for 25 min before termination of the reaction by rapid filtration over Whatman GF/B glass fiber filters that had been presoaked in a solution of 0.5% polyethylenimine for at least 1 hr prior to use. Filters were washed with three 4 ml volumes of cold Tris buffer. Following addition of scintillation cocktail, the amount of bound radioactivity was determined by liquid scintillation spectrometry using a Beckman LS 5000TA liquid scintillation counter with an efficiency for tritium of approximately 55% . Inhibition constants (Ki values) were calculated using the EBDA/LIGAND program (McPherson, J. Pharmacol. Meth. 1985, 14, 213-228), purchased from Elsevier/Biosoft, Inc. Results are reported as Ki values or as a percent (%) inhibition of binding at 10

Series [2] has as its system PCP recognition sites. Nature of the series: [3H]TCP Radioreceptor Assay (external screen). The following applies: @ 10 μM; rat forebrain membranes; 25° C., 60 minutes. It is filed as binding, rat (whole rat forebrain membranes). How it is done:
Representative compounds of the invention were also tested in an external [^3 H]TCP radioreceptor assay using the following protocol:
[^3 H]TCP Radioreceptor Assay (external screen)
A procedure similar to that described above for the [^3 H]TCP radioreceptor assay (internal screen) was utilized except that the whole rat forebrain membranes were incubated at 25° C. for 60 minutes rather than at room temperature for 25 minutes, before termination of the reaction. The results are reported as a percent (%) inhibition of binding at 10 μM.

For series [3], the system named is NMDA-induced neurotoxicity in cultured cortical neurons. Nature of the series: Antagonism of NMDA-induced neurotoxicity in cultured neurons (LDH release). The conditions noted are these: 500 μM NMDA, 30 minutes, LDH activity at 24 hours, mouse cortical neurons. It is filed as cell-based, mouse (Swiss-Webster). The method, then:
Antagonism of NMDA-induced Neurotoxicityin Cultured Neurons
Preparation of Cultured Cortical Neurons
Pregnant, Swiss-Webster mice were obtained from Taconic Farms (Germantown, New York) and sacrificed 16 days post conception. Fetuses were removed and placed in a sterile dish containing Hank's balanced salt solution (HBSS), pH 7.4. Brain cortices were dissected, meninges were removed, the tissue was minced and placed into a solution of HBSS containing 0.25% (w/v) trypsin at 37° C. for 15 minutes. Tissue was then triturated with a sterile pasteur pipet, diluted with minimal essential media (Gibco 330-1430), pH 7.4, supplemented with 10% horse serum, 10% fetal calf serum, 2 mM 1-glutamine, 21 mM d-glucose, 2.2 g/L sodium bicarbonate, 1000 u/ml penicillin, and 1,000 μg/ml streptomycin. Cells were plated onto Falcon primaria 96 well plates at a final density of 50,000 cells/well and incubated at 37° C. in the presence of 5% (v/v) carbon dioxide. After 5 days, plating media was replaced with maintenance media containing minimal essential media (Gibco 330- 1430), pH 7.4, supplemented with 10% horse serum, 10% 1-glutamine, 21 mM d-glucose, 2.2 g/l sodium bicarbonate,1,000 U/ml penicillin, 1,000 μg/ml streptomycin, and 10 μM cytosine arabinoside. On days 7 and 10, media was replaced with maintenance media as above lacking the cytosine arabinoside. Experiments were conducted on day 13.
Neuroprotection Assessment
Day 13 cultured cortical neurons were washed twice with minimal essential media, pH 7.4 and then exposed for 30 minutes to 500 μM N-methyl-D-aspartic acid (NMDA) with or without varying concentrations of test agents. Dizocilpine (MK-801) at a final concentration of 10 μM MK-801 was routinely included as a positive control. MK-801 and test agents were prepared in minimal essential media supplemented with 21 mM d-glucose and 2.2 g/L sodium bicarbonate (MEM). After 30 minutes, media was replaced with MEM alone. Exposure of neurons to test agents was limited to the NMDA treatment period. Twenty-four hours after removal of NMDA, an aliquot of media from each well was removed for assessment of cell injury by determining lactate dehydrogenase (LDH) activity by. the method of Wroblewski and LaDue Proc. Soc. Exp. Biol. Med. 1955, 90, 210-213. The results are expressed as an IC50 (in nM) value (concentration causing 50% inhibition) for the antagonism of NMDA--inducedneurotoxicity.
Background: LDH leaks from cells whose membrane has failed.

A short description of series [4]: Comparison of separate enantiomers with the racemate (test not specified). The following applies: (-)-enantiomer vs (+)-enantiomer or racemate.

pIC50, pKi: −log10 of the molar value.

The values below come from US5380729A, “12-hetero substituted 6,11-ethano-6,11-dihydrobenzo (b) quinolizinium salts and compositions and method of use thereof” (Sterling Winthrop Inc., priority 1993, dated 1995).

As usually defined, the pKi is the negative decadic logarithm of the Ki, by convention in mol/L. Lower therefore signals a high Ki. The term pIC50 denotes −log10 of the IC50, conventionally taken in molar units.

For `CCOC1(OCC)CC2c3c(C)cccc3C1c1cccc[n+]12.[O-][Cl+3]([O-])([O-])[O-]` (stereo not drawn) [63(f), 7-Methyl-12,12-diethoxy-6,11-ethano-6,11-dihydrobenzo[b]quinolizinium perchlorate], the pKi in series [1] is 5.13. The “Percent inhibition, [3H]TCP (external screen)” value in series [2] was 34%.

`CCOC1(OCC)C2c3ccccc3C([n+]3ccccc32)C1(C)C` (single isomer, unassigned; (-)) [Example 12(c), (-)-12,12-diethoxy-13,13-dimethyl-6,11-ethano-6,11-dihydrobenzo[b]quinolizinium chloride. 1/2-7/4 hydrate] gave a pKi in series [1] (hydrate) of 8.39. For the same molecule, the pIC50 in series [3] was 7.59. For the same molecule, in series [4], the “potency compared to the (+)-enantiomer (Example 13(c)) or the racemate (Example 2)” value was “more potent” and the “side effects compared to the (+)-enantiomer (Example 13(c)) or the racemate (Example 2)” value is “fewer side effects”.

As for `CCOC1(OCC)C2c3ccccc3C([n+]3ccccc32)C1(C)C` (stereo not drawn) [Example 2, 12,12-diethoxy-13,13-dimethyl-6,11-ethano-6,11-dihydrobenzo[b]quinolizinium chloride-1/4 H2 O], in series [1], the pKi is 8.28. In series [3] (Cortical neurone), this molecule gave a pIC50 of 7.30 to 7.52.

In turn, `CCOC1(OCC)C2c3c(Br)cccc3C([n+]3ccccc32)C1(C)C.[O-][Cl+3]([O-])([O-])[O-]` (stereo not drawn) [Example 29, 6,11-ethano-12,12-diethoxy-13,13-dimethyl-10-bromo-6,11-dihydrobenzo[b]quinolizinium perchlorate] gave a pKi in series [1] of 6.88. The molecule also gave a pIC50 in series [3] of 5.98.

In the case of `CCOC1(OCC)CC2c3c(C)ccc(C)c3C1c1cccc[n+]12.[O-][Cl+3]([O-])([O-])[O-]` (stereo not drawn) [63(h), 7,10-Dimethyl-12,12-diethoxy-6,11-ethano-6,11-dihydrobenzo[b]quinolizinium perchlorate], the “Percent inhibition, [3H]TCP (external screen)” value in series [2] is recorded as 52%.

In series [1], `CCOC1(OCC)C2c3ccccc3C(C1Cl)[n+]1ccccc12` (single isomer, unassigned) [Example 41, 6,11-ethano-12,12-diethoxy-13-chloro-6,11-dihydrobenzo[b]quinolizinium bromide] gave a pKi of 7.17. The molecule further gave a pIC50 in series [3] (Cortical neurone) of 6.35.

In series [1], `CCOC1(OCC)C2(C)c3ccccc3C([n+]3ccccc32)C1(C)C.[O-][Cl+3]([O-])([O-])[O-]` (stereo not drawn) [Example 51, 6,11-ethano-12,12-diethoxy-13,13-dimethyl-11-methyl-6,11-dihydrobenzo[b]quinolizinium perchlorate] had a pKi of 7.95. Moreover, the pIC50 in series [3] (Cortical neurone) is 7.49.

Take `CCOC1(OCC)CC2c3ccc(C)cc3C1c1cccc[n+]12.[O-][Cl+3]([O-])([O-])[O-]` (stereo not drawn) [63(g), 9-Methyl-12,12-diethoxy-6,11-ethano-6,11-dihydrobenzo[b]quinolizinium perchlorate]: the “Percent inhibition, [3H]TCP (internal screen)” value in series [1] (@ 10 μM) is recorded as 68%. Besides, the “Percent inhibition, [3H]TCP (external screen)” value in series [2] is on record as 0%.

Turning to `CCOC1(OCC)CC2c3cc(C)c(C)cc3C1c1cccc[n+]12.[O-][Cl+3]([O-])([O-])[O-]` (stereo not drawn) [63(i), 8,9-Dimethyl-12,12-diethoxy-6,11-ethano-6,11-dihydrobenzo[b]quinolizinium perchlorate], in series [1], the pKi was 5.64. In addition, the “Percent inhibition, [3H]TCP (external screen)” value in series [2] came to 35%.

`CCOC1(OCC)C2c3cc(OC)ccc3C([n+]3ccccc32)C1(C)C` (single isomer, unassigned) [20(a), 9-methoxy-12,12-diethoxy-13,13-dimethyl-6,11-ethano-6,11-dihydrobenzo[b]quinolizinium hexafluorophosphate]: the negative-log Ki (pKi) in series [1] was 8.45. Also, the negative-log IC50 (pIC50) in series [3] was 6.80.

In series [1], `CCOC1(OCC)C2c3c(C)ccc(C)c3C(C1C)[n+]1ccccc12.[O-][Cl+3]([O-])([O-])[O-]` (stereo not drawn) [63(e), 7,10-Dimethyl-12,12-diethoxy-13-methyl-6,11-ethano-6,11-dihydrobenzo[b]quinolizinium perchlorate] showed a negative-log Ki (pKi) of 6.59. The “Percent inhibition, [3H]TCP (external screen)” value in series [2] is listed as 65%.

For the molecule `CCCOC1(OCCC)C2c3ccccc3C([n+]3ccccc32)C1(C)C.[O-][Cl+3]([O-])([O-])[O-]` (stereo not drawn) [Example 39, 6,11-ethano-12,12-dipropoxy-13,13-dimethyl-6,11-dihydrobenzo[b]quinolizinium perchlorate], the negative logarithm of the Ki (pKi) in series [1] was 7.94. In series [3], the pIC50 was 7.07.

`CCOC1(OCC)C2c3cc(Br)ccc3C([n+]3ccccc32)C1(C)C.[O-][Cl+3]([O-])([O-])[O-]` (stereo not drawn) [Example 35, 6,11-ethano-12,12-diethoxy-13,13-dimethyl-9-bromo-6,11-dihydrobenzo[b]quinolizinium perchlorate]: in series [1], the pKi is 7.21. The molecule also had a negative logarithm of the IC50 (pIC50) in series [3] of 6.76.

In series [1] (hydrate), `CCOC1(OCC)C2c3ccccc3C([n+]3ccccc32)C1(C)C` (single isomer, unassigned) [Example 13(c), 12,12-diethoxy-13,13-dimethyl-6,11-ethano-6,11-dihydrobenzo[b]quinolizinium chloride-1/2-3/4 hydrate] gave a pKi of 7.96. This molecule showed a pIC50 in series [3] (Cortical neurone) of 7.30.

For the molecule `CCOC1(OCC)CC2c3ccccc3C1(C)c1cccc[n+]12.[O-][Cl+3]([O-])([O-])[O-]` (stereo not drawn) [63(c), 11-Methyl-12,12-diethoxy-6,11-ethano-6,11-dihydrobenzo[b]quinolizinium perchlorate], the pKi in series [1] was 5.03. Also, the “Percent inhibition, [3H]TCP (external screen)” value in series [2] turned out to be 0%.

`CCOC1(OCC)C2c3c(OC)cccc3C([n+]3ccccc32)C1(C)C` (stereo not drawn) [19(d), 10-methoxy-12,12-diethoxy-13,13-dimethyl-6,11-ethano-6,11-dihydrobenzo[b]quinolizinium chloride·3/2 hydrate]: the pKi in series [1] (hydrate) was 7.98. The molecule also showed a pIC50 in series [3] (Cortical neurone) of 7.66.
